Laboratory results from ChEMBL document CHEMBL3526020, “Significance of peptide transporter 1 in the intestinal permeability of valacyclovir in wild-type and PepT1 knockout mice” (Drug Metab Dispos, 2013).

Assays:
[1] = Permeability of the compound in human jejunum; format: ADME, tissue-based; settings: read-out: permeability
[2] = Permeability in mouse jejunum; format: ADME, tissue-based; settings: read-out: permeability
Colon [3] = assay: Effective permeability of the compound in PepT1 knockout mouse colon at 100 uM by HPLC analysis relative to wild type mouse; format: ADME
PepT1 (SLC15A1) [4] = biological target: T1, PepT1 (SLC15A1) (Mus musculus, UniProt Q9JIP7); assay: Effective permeability of the compound assessed as PepT1-mediated drug uptake in wild type mouse jejunum at 100 uM by HPLC analysis; format: ADME; settings: read-out: Peff
T1 sequence (Q9JIP7 whole entry): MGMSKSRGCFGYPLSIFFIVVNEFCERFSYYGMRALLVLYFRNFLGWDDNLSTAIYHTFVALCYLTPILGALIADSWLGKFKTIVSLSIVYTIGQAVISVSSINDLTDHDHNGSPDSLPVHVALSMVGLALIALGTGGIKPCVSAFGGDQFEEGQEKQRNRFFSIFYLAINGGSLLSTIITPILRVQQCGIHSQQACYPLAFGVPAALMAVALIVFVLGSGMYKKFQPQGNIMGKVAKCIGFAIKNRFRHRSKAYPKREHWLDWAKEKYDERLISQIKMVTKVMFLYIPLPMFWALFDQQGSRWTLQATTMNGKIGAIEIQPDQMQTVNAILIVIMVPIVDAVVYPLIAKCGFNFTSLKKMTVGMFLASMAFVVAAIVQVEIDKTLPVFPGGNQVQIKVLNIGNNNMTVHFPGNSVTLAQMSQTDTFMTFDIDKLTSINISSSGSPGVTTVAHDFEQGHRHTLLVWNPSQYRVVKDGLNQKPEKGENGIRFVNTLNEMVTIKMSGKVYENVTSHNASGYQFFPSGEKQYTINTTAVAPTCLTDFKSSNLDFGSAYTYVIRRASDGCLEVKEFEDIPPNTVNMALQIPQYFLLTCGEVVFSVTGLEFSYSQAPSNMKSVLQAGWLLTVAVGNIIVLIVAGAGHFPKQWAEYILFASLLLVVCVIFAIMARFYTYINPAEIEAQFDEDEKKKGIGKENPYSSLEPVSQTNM

[5] = Chemical stability of the compound; format: physicochemical
Jejunum [6] = assay: Drug uptake in wild type mouse jejunum at 100 uM at pH 6.5 by HPLC analysis in presence of PepT1 substrate GlySar; format: ADME, tissue-based; settings: in vivo, pH 6.5, 100 µM
[7] = Drug uptake in human Caco2 cells; format: ADME, cell-based; settings: Caco-2 cells
Jejunum [8] = assay: (§1) Drug uptake in wild type mouse jejunum at 0.01 to 50 mM by nonlinear Michaelis-Menten equation analysis; format: ADME, tissue-based
[9] = as §1; format: ADME, tissue-based; settings: mouse, jejunum
Colon [10] = assay: Drug degradation in mouse colon at 100 uM by chromatographic analysis; format: ADME, tissue-based
PepT1 (SLC15A1) [11] = biological target: T1, PepT1 (SLC15A1); assay: Effective permeability of the compound assessed as PepT1-mediated drug uptake in wild type mouse duodenum at 100 uM by HPLC analysis; format: ADME; settings: read-out: Peff
Plasma [12] = assay: Prodrug activation in mouse portal vein plasma assessed as formation of acyclovir at 100 uM by HPLC analysis; format: cell-free
Jejunum [13] = assay: Drug degradation in mouse jejunum at 100 uM by chromatographic analysis; format: ADME, tissue-based
Jejunum [14] = assay: Drug uptake in wild type mouse jejunum at 100 uM at pH 6.5 by HPLC analysis in presence of organic cation substrate TEA; format: ADME, tissue-based; settings: in vivo, pH 6.5, 100 µM
Ileum [15] = assay: Effective permeability of the compound in PepT1 knockout mouse ileum at 100 uM by HPLC analysis relative to wild type mouse; format: ADME, tissue-based
[16] = Drug uptake in rat jejunum; format: ADME, tissue-based
Ileum [17] = assay: Drug degradation in mouse ileum at 100 uM by chromatographic analysis; format: ADME, tissue-based
PepT1 (SLC15A1) [18] = biological target: T1, PepT1 (SLC15A1); assay: Effective permeability of the compound assessed as PepT1-mediated drug uptake in wild type mouse ileum at 100 uM by HPLC analysis; format: ADME, tissue-based; settings: read-out: Peff
Jejunum [19] = assay: Drug uptake in wild type mouse jejunum at 100 uM at pH 6.5 by HPLC analysis in presence of ATB0,+ substrate L-valine; format: ADME, tissue-based; settings: in vivo, pH 6.5, 100 µM
PepT1 (SLC15A1) [20] = biological target: T1, PepT1 (SLC15A1); assay: Effective permeability of the compound assessed as PepT1-mediated drug uptake in wild type mouse colon at 100 uM by HPLC analysis; format: ADME; settings: not told, read-out: Peff
Jejunum [21] = assay: Effective permeability of the compound in PepT1 knockout mouse jejunum at 100 uM by HPLC analysis relative to wild type mouse; format: ADME, tissue-based
Jejunum [22] = assay: Drug uptake in wild type mouse jejunum at 100 uM at pH 6.5 by HPLC analysis in presence of PepT1 substrate cefadroxil; format: ADME, tissue-based; settings: in vivo, pH 6.5, 100 µM
Duodenum [23] = assay: Drug degradation in mouse duodenum at 100 uM by chromatographic analysis; format: ADME, tissue-based
Duodenum [24] = assay: Effective permeability of the compound in PepT1 knockout mouse duodenum at 100 uM by HPLC analysis relative to wild type mouse; format: ADME
Jejunum [25] = assay: Drug uptake in wild type mouse jejunum at 100 uM at pH 6.5 by HPLC analysis in presence of organic anion substrate PAH; format: ADME, tissue-based; settings: in vivo, pH 6.5, 100 µM
Jejunum [26] = assay: Drug uptake in wild type mouse jejunum at 100 uM at pH 6.5 by HPLC analysis in presence of PhT1/2 substrate L-histidine; format: ADME, tissue-based; settings: in vivo, pH 6.5, 100 µM
[27] = AUC (0 to 180 mins) in PepT1 knockout mouse treated with 25 nmol/g, po of valacyclovir; format: ADME, organism-based; parameters: time < 3 hr, dose 25 nmol/g, route oral; settings: plasma
Plasma [28] = assay: Drug level in mouse portal vein plasma treated with valacyclovir at 100 uM by HPLC analysis; format: ADME, cell-free
[29] = AUC (0 to 180 mins) in wild type mouse treated with 25 nmol/g, po of valacyclovir; format: ADME, organism-based; parameters: time < 3 hr, dose 25 nmol/g, route oral; settings: plasma
[30] = Cmax in PepT1 knockout mouse treated with 25 nmol/g, po of valacyclovir; format: ADME, organism-based; parameters: dose 25 nmol/g, route oral; settings: in vivo
[31] = Effective permeability of the compound in PepT1 knockout mouse jejunum at 100 uM by HPLC analysis; format: ADME, tissue-based; settings: read-out: Peff
[32] = Cmax in wild type mouse treated with 25 nmol/g, po of valacyclovir; format: ADME, organism-based; parameters: dose 25 nmol/g, route oral; settings: in vivo
[33] = Tmax in PepT1 knockout mouse treated with 25 nmol/g, po of valacyclovir; format: ADME, organism-based; settings: in vivo
[34] = Tmax in wild type mouse treated with 25 nmol/g, po of valacyclovir; format: ADME, organism-based; settings: in vivo
[35] = substrate: CC(C)[C@H](N)C(=O)OCCOCn1cnc2c(=O)[nH]c(N)nc21; assay: Permeability of the compound assessed as human PepT1-mediated drug uptake in CHO cells at pH 7.9; format: ADME, cell-based
[36] = substrate: CC(C)[C@H](N)C(=O)OCCOCn1cnc2c(=O)[nH]c(N)nc21; assay: Permeability of the compound assessed as human PepT1-mediated drug uptake in CHO cells at pH 5.5; format: ADME, cell-based
[37] = substrate: CC(C)[C@H](N)C(=O)OCCOCn1cnc2c(=O)[nH]c(N)nc21; assay: Permeability of the compound assessed as human PepT1-mediated drug uptake in MDCK cells; format: ADME, cell-based
[38] = substrate: CC(C)[C@H](N)C(=O)OCCOCn1cnc2c(=O)[nH]c(N)nc21; assay: Permeability of the compound assessed as human PepT1-mediated drug uptake in Xenopus oocytes; format: ADME, cell-based

COCCc1ccc(OCC(O)CNC(C)C)cc1 (stereo not drawn) [METOPROLOL]
Papp [1]: 134 ×10⁻⁶ cm/s | Papp [2]: 50 ×10⁻⁶ cm/s

CC(C)[C@H](N)C(=O)OCCOCn1cnc2c(=O)nc(N)[nH]c21.Cl [VALACYCLOVIR HYDROCHLORIDE]
Peff (Colon [3]): < 10% | Papp at 100 µM (PepT1 (SLC15A1) [4]): 170 ×10⁻⁶ cm/s | Stability [5]: < 5% | Drug uptake (Jejunum [6]): Not Active | Km [7]: 1.6 mM | Kd (Jejunum [8]): 3 ×10⁻⁵ cm/s | Drug uptake (Jejunum [8]; mouse, in vivo, 50000 µM): 82% | Vmax (Jejunum [8]; mouse, in vivo, 50000 µM): 1.4 nmol/cm2/s | Km at up to 50000 µM [9]: 10.2 mM | Stability (Colon [10]): Unstable | Papp [1]: 166 ×10⁻⁶ cm/s | Papp at 100 µM (PepT1 (SLC15A1) [11]): 240 ×10⁻⁶ cm/s | Drug metabolism (Plasma [12]): metabolite_detected | Stability (Jejunum [13]): Unstable | Drug uptake (Jejunum [14]): Active | Peff (Ileum [15]): < 10% | Km [16]: 1.2 mM | Stability (Ileum [17]): Unstable | Papp at 100 µM (PepT1 (SLC15A1) [18]): 210 ×10⁻⁶ cm/s | Drug uptake (Jejunum [19]): Active | Papp at 100 µM (PepT1 (SLC15A1) [20]): 27 ×10⁻⁶ cm/s | Peff (Jejunum [21]): < 10% | Drug uptake (Jejunum [22]): Not Active | Stability (Duodenum [23]): Unstable | Peff (Duodenum [24]): < 10% | Drug uptake (Jejunum [25]): Active | Drug uptake (Jejunum [26]): Active

Nc1nc2c(ncn2COCCO)c(=O)[nH]1 [ACYCLOVIR]
Papp at 100 µM (PepT1 (SLC15A1) [4]): 4 ×10⁻⁶ cm/s | AUC(0-t) at 3 h [27]: 5.02 µM·h | Stability [5]: < 5% | Drug metabolism (Plasma [28]): metabolite_detected | AUC(0-t) at 3 h [29]: 12.3 µM·h | Cmax [30]: 2 µM | Papp at 100 µM [31]: 7.4 ×10⁻⁶ cm/s | Cmax [32]: 9.3 µM | Tmax [33]: 70 min | Tmax [34]: 25 min

B1: Solute carrier family 15 member 1 (Homo sapiens) (protein)
chain: MGMSKSHSFFGYPLSIFFIVVNEFCERFSYYGMRAILILYFTNFISWDDNLSTAIYHTFVALCYLTPILGALIADSWLGKFKTIVSLSIVYTIGQAVTSVSSINDLTDHNHDGTPDSLPVHVVLSLIGLALIALGTGGIKPCVSAFGGDQFEEGQEKQRNRFFSIFYLAINAGSLLSTIITPMLRVQQCGIHSKQACYPLAFGVPAALMAVALIVFVLGSGMYKKFKPQGNIMGKVAKCIGFAIKNRFRHRSKAFPKREHWLDWAKEKYDERLISQIKMVTRVMFLYIPLPMFWALFDQQGSRWTLQATTMSGKIGALEIQPDQMQTVNAILIVIMVPIFDAVLYPLIAKCGFNFTSLKKMAVGMVLASMAFVVAAIVQVEIDKTLPVFPKGNEVQIKVLNIGNNTMNISLPGEMVTLGPMSQTNAFMTFDVNKLTRINISSPGSPVTAVTDDFKQGQRHTLLVWAPNHYQVVKDGLNQKPEKGENGIRFVNTFNELITITMSGKVYANISSYNASTYQFFPSGIKGFTISSTEIPPQCQPNFNTFYLEFGSAYTYIVQRKNDSCPEVKVFEDISANTVNMALQIPQYFLLTCGEVVFSVTGLEFSYSQAPSNMKSVLQAGWLLTVAVGNIIVLIVAGAGQFSKQWAEYILFAALLLVVCVIFAIMARFYTYINPAEIEAQFDEDEKKNRLEKSNPYFMSGANSQKQM
Km [35]: 2.2 mM | Km [36]: 7.4 mM | Km [37]: 3.8 mM | Km [38]: 5.9 mM
